Results as given in US20240299277A1, “COMPOSITION FOR IMPROVING SKIN” (LG HOUSEHOLD & HEALTH CARE LTD., priority 2020, published 2024).

How the values were obtained:
[1] = Free radical scavenging ability by DPPH method; assay type: biochemical; conditions: each component 0.5 mg/mL in methanol; DPPH 0.12 mM; 1 hour; absorbance 517 nm; average of three
Description: In Comparative Examples 1 to 4 and Examples 1 to 6, a solution was prepared using methanol as a solvent so that the concentration of each component in the solution was 0.5 mg/mL. In order to confirm the antioxidant effect of Comparative Examples 1 to 4 and Examples 1 to 6, free radical scavenging ability was measured using a 1,1-diphenyl-2-picrylhydrazyl (DPPH) method. […] DPPH was used after being dissolved in methanol at a concentration of 0.12 mM.
Comparative Examples 1 to 4, Examples 1 to 6, and Trolox solutions by concentration (0.0125, 0.025, 0.05, 0.1, 0.2, 0.4, 0.8 mg/mL) were each put into a 24-well plate in an amount of 100 μL, and the DPPH solution was added in an amount of 1,900 μL. After blocking the light at room temperature and leaving it for 1 hour, the absorbance at 517 nm was measured using a microplate reader (BioTek EPOCH). A calibration curve according to the concentration was created using the absorbance values of the Trolox solution at 7 concentrations. In this experiment, Trolox is one indicator for measuring the antioxidative capacity of a sample, and the antioxidative capacity of each comparative example and example is a size compared to Trolox. The degree of antioxidant effect shown by 1 mL of the example solution by substituting the absorbance of the example solution into the calibration curve is expressed in Trolox μmol equivalents/mL and summarized in Table 2 below. The experiment was performed three times, and then an average value was calculated and shown.

MNT-1 melanoma cells = test: Inhibition of melanin production in MNT-1 melanoma cells; assay type: cell-based; conditions: each component 3 μg/mL (3 ppm); 72 hours; relative to methanol negative control; average of three
Description: To culture MNT-1 melanoma cells, a mixture of Dulbecco's Modified Eagle's Medium (DMEM) and 10% fetal bovine serum (FBS) was used as a basal medium. MNT-1 melanoma cells were dispensed in a 6-well plate at a concentration of 1-2×10^5 cells/mL and cultured for 24 hours. Samples were treated so that the final concentration of each component of Comparative Examples 1 to 4 and Examples 1 to 6 was 3 μg/mL (3 ppm), and then cultured for 72 hours. As a positive control, arbutin was treated to be 200 μg/mL (200 ppm) (positive control in Table 3). Thereafter, the cells were treated with trypsin, detached from the culture vessel, centrifuged at 13,000 rpm for 1 minute, and then the supernatant was removed. Cells were lysed by adding 300 μL of a 0.5% Triton X-100 solution to the remaining cells. This was again centrifuged at 13,000 rpm for 3 minutes to recover the pellet and supernatant separately. Melanin in the pellet was dissolved by adding 100 μL of a 0.5 N sodium hydroxide solution and incubating for 12 hours, and absorbance at 450 nm was measured using a spectrophotometer to measure the total amount of melanin produced.
The total amount of inhibited melanin production was calculated as a melanin production inhibition rate (%) relative to a group (negative control group) treated with methanol (Equation 1 below), and the experiment was performed three times, and then an average value was calculated and shown in Table 3.

[2] = tested on: human-derived fibroblasts; test: Collagen synthesis promotion in fibroblasts (Procollagen 1α1 ELISA); assay type: cell-based; conditions: each component 3 μg/mL (3 ppm); 24 hours; medium without FBS; relative to methanol negative control; average of three
Description: A mixture of DMEM and 10% FBS was used as a basal medium for culturing human-derived fibroblasts. Skin fibroblasts were dispensed in a 48-well plate at a concentration of 2-5×10^4 cells/mL and cultured for 24 hours. The basal medium with growth factors was removed, and a medium (a medium to which FBS was not added) having a final concentration of 3 μg/mL (3 ppm) of each component of Comparative Examples 1 to 4 and Examples 1 to 6 was added and cultured for 24 hours. A positive control for inducing collagen synthesis was treated with TGF-β to be 5 ng/mL (5 ppb) (positive control in Table 4). A cell culture solution was taken and synthesized collagen was measured using a Human Procollagen 1α1 Duoset ELISA Kit (R&D Systems) and a spectrophotometer.
A calibration curve was created by measuring the separated and purified collagen at concentrations of 0.25, 0.5, 1, 2, 4, and 8 ng/mL, and based on this, the collagen (Type I collagen) production amounts of Comparative Examples 1 to 4 and Examples 1 to 6, a negative control group, and a positive control group were calculated. The collagen production amount was calculated using a collagen production rate (%) relative to the group treated with methanol (negative control group) (Equation 2 below), and the experiment was performed three times, and then an average value was calculated and shown in Table 4.

Human skin keratinocytes = test: Hyaluronic acid synthesis promotion in keratinocytes (Hyaluronan ELISA); assay type: cell-based; conditions: each component 3 μg/mL (3 ppm); 24 hours; medium without EGF and BPE; relative to methanol negative control; average of three
Description: Human skin keratinocytes (primary cultured human skin keratinocytes) were purchased from Thermo Fisher Scientific and cultured using Keratinocyte-SFM supplemented with epidermal growth factor (EGF), which is a growth factor, and bovine pituitary extract (BPE). The keratinocytes were dispensed in a 60-mm culture plate at a concentration of 2-5×10^5 cells/mL and cultured for 24 hours. The basal medium with growth factors was removed, and a medium (a medium to which EGF and BPE were not added) having a final concentration of 3 μg/mL (3 ppm) of each component of Comparative Examples 1 to 4 and Examples 1 to 6 was added and cultured for 24 hours. A positive control for inducing hyaluronic acid synthesis was treated with all-trans-retinoic acid to be 100 nM (positive control in Table 5). A cell culture solution was taken and synthesized hyaluronic acid was measured using a Hyaluronan DuoSet ELISA Kit (R&D Systems) and a spectrophotometer.
A calibration curve was created by measuring standard hyaluronic acid at concentrations of 1.1, 3.3, 10, 30, and 90 ng/mL, and based on this, the hyaluronic acid production amounts of Comparative Examples 1 to 4 and Examples 1 to 6, a negative control group, and […] were calculated. The hyaluronic acid production amount was calculated using a hyaluronic acid production rate (%) relative to the group treated with methanol (negative control group) (Equation 2 below), and the experiment was performed three times, and then an average value was calculated and shown in Table 5.

Row | SMILES | Trolox μmol equivalents/mL [1] | Melanin production Inhibition rate (%) (MNT-1 melanoma cells) | Collagen Production rate (%) [2] [%] | Hyaluronic acid Production rate (%) (Human skin keratinocytes)
1 | CCCCC/C=C\C/C=C\CCCCCCCC(=O)O [compound 4, Linoleic acid] | 0.023 Trolox μmol equivalents/mL | 6.7 | −2.5 | 4.1
2 | CC[C@H](CC[C@@H](C)[C@H]1CC[C@H]2[C@@H]3CC=C4C[C@@H](O)CC[C@]4(C)[C@H]3CC[C@]12C)C(C)C [compound 3, Beta-sitosterol] | 0.051 Trolox μmol equivalents/mL | 1.7 | 2.4 | −3.0
3 | C[C@@H]1CC[C@H]2C(C)(C)[C@H]3C[C@@]12CC[C@@]3(C)O [compound 1, Cedrol] | 0.104 Trolox μmol equivalents/mL | 17.5 | 27.9 | 5.6
4 | COc1cc(/C=C/C(=O)O)ccc1O [compound 2, Ferulic acid] | 0.981 Trolox μmol equivalents/mL | 16.3 | 8.8 | 32.2
